Assay results from ChEMBL document CHEMBL1201862, “PubChem BioAssay data set” (2004).
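Compound exposure: 48 hours, 5 concentrations, 96-well plates. Here, GI50 denotes the concentration required for 50% inhibition of growth.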 Calls of active or inactive are those of the source. Cut-off read from the data, not from the text of the source: active = GI50 up to about 1.1 µM and inactive = higher.

What was measured:
Assay in all cases: NCI-60 cell line screen, 48 h
[1] = test system: OVCAR-4
[2] = test system: SNB-19
[3] = test system: SF-295
[4] = test system: COLO 205
[5] = test system: K562
[6] = test system: LOX IMVI
[7] = test system: IGROV-1
[8] = test system: HCT-116
[9] = test system: A498
[10] = test system: SR
[11] = test system: KM12
[12] = test system: CAKI-1
[13] = test system: HT-29
[14] = test system: ACHN
[15] = test system: SK-MEL-2
[16] = test system: RPMI-8226
[17] = test system: OVCAR-5
[18] = test system: SK-MEL-5
[19] = test system: MDA-MB-435
[20] = test system: PC-3

Measured: GI50

CS/C(=N\C(=S)N(C)C)N(c1ccccc1)c1nc(N(C)C)s[s+]1
inactive: [1] 12.2 µM | [2] 32.6 µM | [3] 16.7 µM | [4] 2 µM | [5] 2.56 µM | [6] 5.74 µM | [7] 77.3 µM | [8] 10 µM | [9] 1.9 µM | [10] 3.98 µM | [11] 3.65 µM | [12] 29 µM | [13] 2.67 µM | [14] 23.8 µM | [15] 5.52 µM | [16] 1.84 µM

COC1/C(=C\c2ccccc2I)c2ccccc2N1C(C)=O (stereo not given)
inactive: [1] 16.2 µM | [2] 22.6 µM | [3] 14.3 µM | [4] 17.6 µM | [5] 15.6 µM | [7] 18.1 µM | [8] 13.8 µM | [9] 15.8 µM | [10] 14.4 µM | [11] 15.6 µM | [12] 17.1 µM | [13] 15.6 µM | [14] 19.5 µM | [15] 17.5 µM | [16] 8.87 µM

Cc1cc(O)c2c(c1)C(=O)c1cc(O)cc(O)c1C2=O [EMODIN]
inactive: [1] 30.6 µM | [2] 31.8 µM | [3] 23.3 µM | [4] 19.8 µM | [17] 39.4 µM | [6] 15.9 µM | [8] 24 µM | [9] 21.3 µM | [10] 23.4 µM | [11] 20.5 µM | [18] 5.94 µM | [12] 17.1 µM | [13] 33.7 µM | [14] 18.6 µM | [15] 33.9 µM | [16] 17.7 µM

COC(=O)C1CCC[C@H]2C(CO)=C(C)C(=O)[C@@H]12 (stereo not given in full)
inactive: [1] > 100 µM | [2] > 100 µM | [3] > 100 µM | [4] > 100 µM | [17] > 100 µM | [5] > 100 µM | [7] > 100 µM | [8] > 100 µM | [9] > 100 µM | [10] > 100 µM | [11] > 100 µM | [18] > 100 µM | [12] > 100 µM | [13] > 100 µM | [14] > 100 µM | [15] > 100 µM | [16] > 100 µM

CCN(CC)CCCNc1nc(=O)[nH]c(C)c1C(=O)Nc1cccc2cc3ccccc3cc12
inactive: [1] > 100 µM | [2] > 100 µM | [3] > 100 µM | [4] > 100 µM | [19] > 100 µM | [17] > 100 µM | [5] > 100 µM | [6] > 100 µM | [7] > 100 µM | [8] > 100 µM | [11] 45.9 µM | [18] > 100 µM | [20] > 100 µM | [12] > 100 µM | [13] > 100 µM | [14] > 100 µM | [15] > 100 µM | [16] > 100 µM

Cc1ccccc1C(=O)c1c(O)c2c(c(O)c1Br)CCCC2
inactive: [1] 14.9 µM | [2] 23 µM | [3] 21.2 µM | [4] 18.9 µM | [17] 20 µM | [5] 21.1 µM | [7] 20.7 µM | [8] 16.6 µM | [9] 22.1 µM | [10] 16.2 µM | [11] 16.6 µM | [18] 18.5 µM | [12] 20.1 µM | [13] 27.9 µM | [14] 17.9 µM | [15] 16.7 µM | [16] 20.1 µM

CN(CC(=O)Nc1ccccc1C(=O)O)c1ccccc1
inactive: [1] > 100 µM | [2] > 100 µM | [3] > 100 µM | [17] > 100 µM | [5] > 100 µM | [6] > 100 µM | [7] > 100 µM | [8] 84.3 µM | [9] > 100 µM | [10] > 100 µM | [11] > 100 µM | [18] > 100 µM | [20] > 100 µM | [12] > 100 µM | [13] > 100 µM | [14] > 100 µM | [16] > 100 µM

O=C(CC(=O)n1nc(-c2ccccc2)c(/N=N/c2ccc(Cl)cc2)c1-c1ccccc1)Nc1ccc(Cl)cc1
inactive: [1] > 100 µM | [2] > 100 µM | [3] > 100 µM | [4] > 46.9 µM | [17] > 100 µM | [5] > 41.7 µM | [6] > 41.5 µM | [7] > 100 µM | [8] > 39.9 µM | [9] > 100 µM | [10] > 100 µM | [11] 48.6 µM | [18] > 100 µM | [12] > 100 µM | [13] > 43.3 µM | [14] > 100 µM | [15] > 100 µM | [16] > 46.3 µM

CC(C)C(N)C(=O)NC(CCC(=O)NCCCCC(N)C(=O)NCCCNc1ccc([N+](=O)[O-])c2[nH]c3ccccc3c(=O)c12)C(N)=O (stereo not given)
inactive: [1] 20.6 µM | [2] 35.2 µM | [3] 55.7 µM | [4] 68.9 µM | [19] 67.9 µM | [17] > 100 µM | [5] > 100 µM | [6] 21 µM | [8] 21.7 µM | [9] 59 µM | [11] > 100 µM | [18] > 100 µM | [20] 56.6 µM | [12] > 100 µM | [14] 40.6 µM | [15] 91.6 µM | [16] 33.7 µM

CCOC(=O)C1=C(C)N(NC(N)=O)C(C)(O)C12CCOC2=O (stereo not given)
inactive: [1] > 100 µM | [2] > 100 µM | [3] > 100 µM | [17] > 100 µM | [5] > 100 µM | [6] > 100 µM | [7] > 100 µM | [8] > 100 µM | [9] > 100 µM | [10] > 100 µM | [11] > 100 µM | [18] > 100 µM | [12] > 100 µM | [13] > 100 µM | [14] > 100 µM | [15] > 100 µM | [16] > 100 µM

O=C1NCC2(CCNCC2)N1
inactive: [1] > 100 µM | [2] > 100 µM | [3] > 100 µM | [4] > 100 µM | [19] > 100 µM | [17] > 100 µM | [6] > 100 µM | [7] > 100 µM | [8] > 100 µM | [9] > 100 µM | [10] > 100 µM | [11] > 100 µM | [18] > 100 µM | [13] > 100 µM | [14] > 100 µM | [16] > 100 µM

CCCCCCCCOC(CO)CO
inactive: [1] > 100 µM | [2] > 100 µM | [3] > 100 µM | [4] > 100 µM | [17] > 100 µM | [5] > 100 µM | [6] > 100 µM | [7] > 100 µM | [8] > 100 µM | [9] > 100 µM | [10] > 100 µM | [18] > 100 µM | [12] > 100 µM | [13] > 100 µM | [14] > 100 µM | [16] > 100 µM

C[N+](C)(CCNC(=O)c1cccc2cc3ccccc3nc12)Cc1ccc([N+](=O)[O-])s1
inactive: [3] > 25 µM | [4] > 25 µM | [19] > 25 µM | [17] > 25 µM | [5] > 25 µM | [6] > 25 µM | [7] > 25 µM | [8] > 25 µM | [9] > 25 µM | [11] > 25 µM | [18] > 25 µM | [20] > 25 µM | [12] 14.9 µM | [13] > 25 µM | [14] > 25 µM | [15] > 25 µM | [16] > 25 µM

N#C/N=C(/N)NCO
inactive: [1] > 100 µM | [2] > 100 µM | [3] > 100 µM | [4] > 42.1 µM | [17] > 100 µM | [5] > 76 µM | [6] > 39.9 µM | [7] > 100 µM | [8] > 46 µM | [9] > 100 µM | [10] 9.29 µM | [11] > 40 µM | [18] > 100 µM | [12] > 100 µM | [13] > 64.1 µM | [14] > 100 µM | [15] > 100 µM | [16] > 48.2 µM

O=C(O)/C=C/c1ccncc1
inactive: [1] > 100 µM | [2] > 100 µM | [3] > 100 µM | [4] > 100 µM | [17] > 100 µM | [5] > 100 µM | [6] > 100 µM | [7] > 100 µM | [8] > 100 µM | [9] > 100 µM | [10] > 100 µM | [11] > 100 µM | [18] > 100 µM | [12] > 100 µM | [13] > 100 µM | [14] > 100 µM | [15] > 100 µM | [16] > 100 µM

C/C=C1\CC(C(=O)OCC)CCCCCCC1=O (stereo not given)
inactive: [1] > 100 µM | [2] > 100 µM | [3] > 100 µM | [4] > 100 µM | [19] > 100 µM | [17] > 100 µM | [6] > 100 µM | [7] > 100 µM | [8] > 100 µM | [9] > 100 µM | [11] > 100 µM | [18] > 100 µM | [20] > 100 µM | [12] > 100 µM | [13] > 100 µM | [14] > 100 µM | [15] > 100 µM
